Measurements as given in BindingDB's records for doi:10.1016/s0968-0896(00)00026-2 (Alcon Research, 2000).
Counter-ions that a name gives are not always drawn.

What follows are molecules tested against Carbonic anhydrase 2 (Homo sapiens, UniProt P00918) (assay: In vitro binding of inhibitor to hCA-II). Conditions: not given.
Description: Inhibitor binding to CA II was determined using a fluorescence competition assay. Displacement of dansylamide and binding of the inhibitor was determined by measuring and comparing the average fluorescence intensities of the treated versus control reactions. Binding constants were estimated from a Dixon plot of the data (reciprocal of the average fluorescence intensity versus inhibitor concentration)

Ki [nM] | Structure (SMILES)
0.1 | C#CCNCC1=Cc2cc(S(N)(=O)=O)sc2S(=O)(=O)N1CCC [1,1-dioxo-3-[(prop-2-yn-1-ylamino)methyl]-2-propyl-2H-1,7,2-thieno[3,2-e][1,2]thiazine-6-sulfonamide]
0.16 | C#CCNCC1=Cc2cc(S(N)(=O)=O)sc2S(=O)(=O)N1c1cccc(O)c1 [2-(3-hydroxyphenyl)-1,1-dioxo-3-[(prop-2-yn-1-ylamino)methyl]-2H-1,7,2-thieno[3,2-e][1,2]thiazine-6-sulfonamide hydrochloride]
0.3 | NS(=O)(=O)c1cc2c(s1)S(=O)(=O)N(CC1CC1)C(CN1CCOCC1)=C2 [2-(cyclopropylmethyl)-3-(morpholin-4-ylmethyl)-1,1-dioxo-2H-1,7,2-thieno[3,2-e][1,2]thiazine-6-sulfonamide hydrochloride]
0.16 | C=CCN1C(CN2CCOCC2)=Cc2cc(S(N)(=O)=O)sc2S1(=O)=O [3-(morpholin-4-ylmethyl)-1,1-dioxo-2-(prop-2-en-1-yl)-2H-1,7,2-thieno[3,2-e][1,2]thiazine-6-sulfonamide]
0.26 | COCCCN1C(CNC2CC2)=Cc2cc(S(N)(=O)=O)sc2S1(=O)=O [3-[(cyclopropylamino)methyl]-2-(3-methoxypropyl)-1,1-dioxo-2H-1,7,2-thieno[3,2-e][1,2]thiazine-6-sulfonamide hydrochloride]
0.11 | COc1cccc(N2C(CNCCO)=Cc3cc(S(N)(=O)=O)sc3S2(=O)=O)c1 [3-{[(2-hydroxyethyl)amino]methyl}-2-(3-methoxyphenyl)-1,1-dioxo-2H-1,7,2-thieno[3,2-e][1,2]thiazine-6-sulfonamide hydrochloride]
0.15 | CCCN1C(CN(CCOC)CCOC)=Cc2cc(S(N)(=O)=O)sc2S1(=O)=O [3-{[bis(2-methoxyethyl)amino]methyl}-1,1-dioxo-2-propyl-2H-1,7,2-thieno[3,2-e][1,2]thiazine-6-sulfonamide hydrochloride]
0.33 | CCN1C(CN(CCO)CCO)=Cc2cc(S(N)(=O)=O)sc2S1(=O)=O [Compound 17b4]
0.27 | CCCN1C(CN2CCOCC2)=Cc2cc(S(N)(=O)=O)sc2S1(=O)=O [Compound 17c1]
0.33 | CC(C)N1C(CN2CCOCC2)=Cc2cc(S(N)(=O)=O)sc2S1(=O)=O [Compound 17d1]
0.47 | C#CCNCC1=Cc2cc(S(N)(=O)=O)sc2S(=O)(=O)N1C(C)C [Compound 17d8]
0.31 | NS(=O)(=O)c1cc2c(s1)S(=O)(=O)N(C1CCCCC1)C(CN1CCOCC1)=C2 [Compound 17g1]
0.22 | COCCN1C(CN2CCOCC2)=Cc2cc(S(N)(=O)=O)sc2S1(=O)=O [Compound 17h1]
0.21 | COCCN(CCOC)CC1=Cc2cc(S(N)(=O)=O)sc2S(=O)(=O)N1CCOC [Compound 17h2]
0.25 | COCCCN1C(CN2CCOCC2)=Cc2cc(S(N)(=O)=O)sc2S1(=O)=O [Compound 17i1]
0.12 | COCCCN1C(Cn2ccnc2)=Cc2cc(S(N)(=O)=O)sc2S1(=O)=O [Compound 17i10]
0.11 | COc1ccc(CN2C(CN3CCOCC3)=Cc3cc(S(N)(=O)=O)sc3S2(=O)=O)cc1 [Compound 17j1]
0.08 | COc1ccc(N2C(CN3CCOCC3)=Cc3cc(S(N)(=O)=O)sc3S2(=O)=O)cc1OC [Compound 17m1]
0.12 | NS(=O)(=O)c1cc2c(s1)S(=O)(=O)N(c1ccc(N3CCOCC3)cc1)C(CN1CCOCC1)=C2 [Compound 17n1]
0.2 | NS(=O)(=O)c1cc2c(s1)S(=O)(=O)N(CCCO)C(CN1CCOCC1)=C2 [Compound 17o1]
0.21 | CN1C(CN2CCOCC2)=Cc2sc(S(N)(=O)=O)cc2S1(=O)=O [Compound 25]

Same assay, conditions: pH 7.4; 37 °C

Ki [nM] | Structure (SMILES)
0.15 | COc1cccc(N2C(CN3CCOCC3)=Cc3cc(S(N)(=O)=O)sc3S2(=O)=O)c1 [2-(3-Methoxyphenyl)-3-[(4-morpholinyl)methyl]-2H-thieno-[3,2-e]-1,2-thiazine-6-sulfonamide 1,1-dioxide]
0.21 | CCN1C(CN2CCOCC2)=Cc2cc(S(N)(=O)=O)sc2S1(=O)=O [2-Ethyl-3-[(4-morpholinyl)methyl]-2H-thieno[3,2-e]-1,2-thiazine-6-sulfonamide 1,1-dioxide hydrochloride]
0.21 | CCN1C(CN(CCOC)CCOC)=Cc2cc(S(N)(=O)=O)sc2S1(=O)=O [2-Ethyl-3-[[bis(2-methoxyethyl)amino]methyl]-2H-thieno-[3,2-e]-1,2-thiazine-6-sulfonamide 1,1-dioxide hydrochloride]
0.52 | CCCNCCN1C=Cc2cc(S(N)(=O)=O)sc2S1(=O)=O [2-[2-(Propylamino)ethyl]-2H-thieno[3,2-e]-1,2-thiazine-6-sulfonamide 1,1-dioxide hydrochloride]
0.24 | NS(=O)(=O)c1cc2c(s1)S(=O)(=O)N(C/C=C/CN1CCOCC1)C=C2 [2-[(2E)-4-(morpholin-4-yl)but-2-en-1-yl]-1,1-dioxo-2H-1,7,2-thieno[3,2-e][1,2]thiazine-6-sulfonamide hydrochloride]
0.26 | CN1C(CN2CCOCC2)=Cc2cc(S(N)(=O)=O)sc2S1(=O)=O [2-methyl-3-(morpholin-4-ylmethyl)-1,1-dioxo-2H-1,7,2-thieno[3,2-e][1,2]thiazine-6-sulfonamide hydrochloride]
0.34 | COCCN(CCOC)CCN1C=Cc2cc(S(N)(=O)=O)sc2S1(=O)=O [2-{2-[bis(2-methoxyethyl)amino]ethyl}-1,1-dioxo-2H-1,7,2-thieno[3,2-e][1,2]thiazine-6-sulfonamide hydrochloride]
0.15 | COCCN(C)CC1=Cc2cc(S(N)(=O)=O)sc2S(=O)(=O)N1C [3-[N-(2-Methoxyethyl)-N-methylamino]methyl]-2-methyl-2H-thieno[3,2-e]-1,2-thiazine-6-sulfonamide 1,1-dioxide]
0.08 | COCCCN(CCOC)CC1=Cc2cc(S(N)(=O)=O)sc2S(=O)(=O)N1C [3-{[(2-methoxyethyl)(3-methoxypropyl)amino]methyl}-2-methyl-1,1-dioxo-2H-1,7,2-thieno[3,2-e][1,2]thiazine-6-sulfonamide hydrochloride]
0.32 | NS(=O)(=O)c1cc2c(s1)S(=O)(=O)N(CCN1CCOCC1)C=C2 [Compound 5b]
0.25 | CC(=O)N1CCN(CCN2C=Cc3cc(S(N)(=O)=O)sc3S2(=O)=O)CC1 [Compound 5c]
0.1 | C=CCN(CCOC)CC1=Cc2cc(S(N)(=O)=O)sc2S(=O)(=O)N1C [Compound 17a7]
